Results taken from PubChem BioAssay (NCI).
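Values below derive from 48-hour exposures of cells grown in 96-well plates, with endpoints linearly interpolated between the two concentrations bracketing the appropriate inhibition level. Abbreviation: GI50, concentration required for 50% inhibition of growth. TGI marks complete inhibition of growth.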

Columns and labels:
Assay in all cases: NCI anticancer screen, dose series, 48 h
DMS 273 small cell lung = system: DMS 273 small cell lung
KM20L2 colon = system: KM20L2 colon
SK-MEL-5 melanoma = system: SK-MEL-5 melanoma
K-562 leukemia = system: K-562 leukemia
UACC-257 melanoma = system: UACC-257 melanoma
NCI/ADR-RES ovarian = system: NCI/ADR-RES ovarian
HS 578T breast = system: HS 578T breast
T-47D breast = system: T-47D breast
BT-549 breast = system: BT-549 breast
LXFL 529 NSCLC = system: LXFL 529 NSCLC

SMILES | TGI (DMS 273 small cell lung) [µM] | TGI (KM20L2 colon) [µM] | TGI (SK-MEL-5 melanoma) [µM] | TGI (K-562 leukemia) [µM] | GI50 (UACC-257 melanoma) [µM] | TGI (UACC-257 melanoma) [µM] | GI50 (NCI/ADR-RES ovarian) [µM] | TGI (NCI/ADR-RES ovarian) [µM] | GI50 (HS 578T breast) [µM] | TGI (HS 578T breast) [µM] | GI50 (SK-MEL-5 melanoma) [µM] | GI50 (T-47D breast) [µM] | TGI (T-47D breast) [µM] | GI50 (K-562 leukemia) [µM] | GI50 (BT-549 breast) [µM] | TGI (BT-549 breast) [µM] | TGI (LXFL 529 NSCLC) [µM]
CC(=O)/C=C/c1ccc(C2CC(C)=Nc3c(ccc4c3C(=O)c3ccccc3C4=O)N2)cc1 (configuration not stated) | > 100 | > 100 | > 100 | > 100 |  |  |  |  |  |  |  |  |  |  |  |  | 
CCN(CC)CCOc1ccc(/C=C2\CC3C4CC=C5C[C@@H](N6CCCC6)CC[C@]5(C)C4CC[C@]3(C)[C@H]2O)cc1OC (some centres not stated) |  |  | 1.95 | > 100 | 6.82 | 14.9 | 13.3 | 47.5 | 0.76 | 13.6 | 0.336 | 7.75 | 22.6 | 4.49 | 4.7 | 19.3 | 
C[N+](C)(CCCCCC[N+](C)(C)CCCN1C(=O)c2cc3ccccc3cc2C1=O)CCCN1C(=O)c2ccccc2C1=O |  |  | > 37.5 | > 37.5 | > 37.5 | > 37.5 | > 37.5 | > 37.5 | > 37.5 | > 37.5 | > 37.5 | > 37.5 | > 37.5 | > 37.5 | > 37.5 | > 37.5 | 
O=C(O)C12C3CCCC1C2CC3 (configuration not stated) |  | > 100 | > 100 | > 100 |  | > 100 |  |  |  |  |  |  |  |  |  |  | > 100
Nc1c(-c2nc3ccccc3[nH]2)sc(=S)n1-c1ccccc1 | > 100 |  | > 100 | > 100 |  | > 100 |  |  |  |  |  |  |  |  |  |  | > 100
Cc1ccc2c(N)c(C(=O)N[C@H]3CCc4cc(N5CC6CCC(C5)N6)ccc4C3)sc2n1 |  |  | 1.9 | 18 | 0.501 | 2.84 | 0.798 | 2.76 | 0.58 | 2.44 | 0.569 | 0.497 | 3.55 | 0.203 | 0.927 | 3.06 | 
Nc1ccccc1C#C/C=C\C#Cc1ccc(Cl)cc1Cl |  |  | 21.2 | > 100 | 18.3 | 40.9 | 4.42 | 18.8 | 3.61 | 8.49 | 6.63 | 18.9 | 78.5 | 4.84 | 12.4 | 28.7 | 
CC(C(=O)Oc1ccc2ccccc2c1-c1c(O)ccc2ccccc12)c1ccccc1 (configuration not stated) |  |  | 26.8 | 86.7 |  | 27.6 |  |  |  |  |  |  |  |  |  |  | 27.1
COC(=O)c1c(CC#N)cccc1CC#N | > 100 | > 100 |  | > 100 |  | > 100 |  |  |  |  |  |  |  |  |  |  | > 100
CCSc1nc(N=Cc2cccs2)c2cn[nH]c2n1 |  |  | 38.1 | > 100 | 61 | > 100 | 15.7 | 61.4 | 16.2 | > 100 | 7.35 | 23.6 | 95 | 26.1 | > 100 | > 100 | 
COc1ccc(-c2nc(-c3ccccc3)c(-c3ccccc3)n2C2CC2)cc1OC1CCCC1 |  |  | 125 | > 165 | > 165 | > 165 | 58.6 | > 165 | 26.3 | > 165 | 16.7 | 51.5 | > 165 | 11.5 | > 165 | > 165 | 
